Measured values from the NIST ThermoML archive (doi:10.1021/je400498a).
± gives the expanded uncertainty stated by the source.

What was measured:
[1] = for vapor or sublimation pressure: 298.15 K, Gas chromatography
[2] = Molar enthalpy of transition or fusion; conditions: Crystal; DSC

Structure (SMILES) | vapor or sublimation pressure ([1]; Crystal) [kPa] | Normal melting temperature ([1]; Crystal, DTA) [°C] | Molar enthalpy of transition or fusion [2] [kcal/mol] | vapor or sublimation pressure ([1]; Liquid) [kPa]
N[C@@H]1C[C@H]1c1ccccc1 (relative stereo) [trans-2-phenylcyclopropylamine] | – | – | – | 0.028 ± 0.01
CC(N)C12CC3CC(CC(C3)C1)C2 (centres undefined) [1-(adamantan-1-yl)ethan-1-amine] | – | – | – | 0.003 ± 0.002
CC(C)(N)Cc1ccccc1 [2-methyl-1-phenylpropan-2-amine] | – | – | – | 0.035 ± 0.008

Second part, led by results:

vapor or sublimation pressure ([1]; Crystal) [kPa] | Normal melting temperature ([1]; Crystal, DTA) [°C] | Molar enthalpy of transition or fusion [2] [kcal/mol] | Structure (SMILES) | vapor or sublimation pressure ([1]; Liquid) [kPa]
0.0016 ± 0.0002 | – | – | CCCCCCCCCCCCN [1-dodecanamine] | –
0.00012 ± 8e-05 | – | – | CCCCCCCCCCCCCCN [1-tetradecanamine] | –
0.0115 ± 0.0043 | 204.2 ± 1.8 | 1.74 ± 0.12 | NC12CC3CC(CC(C3)C1)C2 [tricyclo(3.3.1.1:3,7)decan-1-amine] | 0.021 ± 0.003
